{"source": "paper PMC7312733", "about": "“From Graphite to Laccase Biofunctionalized Few-Layer Graphene: A “One Pot” Approach Using a Chimeric Enzyme” (International Journal of Molecular Sciences, 2020)", "target": "T1, POXA1b (Pleurotus ostreatus, UniProt O60199)", "T1 construct": "wild-type laccase secreted by Pichia pastoris; concentrated and dialysed supernatant, not further purified", "T1 sequence (O60199 21-533)": "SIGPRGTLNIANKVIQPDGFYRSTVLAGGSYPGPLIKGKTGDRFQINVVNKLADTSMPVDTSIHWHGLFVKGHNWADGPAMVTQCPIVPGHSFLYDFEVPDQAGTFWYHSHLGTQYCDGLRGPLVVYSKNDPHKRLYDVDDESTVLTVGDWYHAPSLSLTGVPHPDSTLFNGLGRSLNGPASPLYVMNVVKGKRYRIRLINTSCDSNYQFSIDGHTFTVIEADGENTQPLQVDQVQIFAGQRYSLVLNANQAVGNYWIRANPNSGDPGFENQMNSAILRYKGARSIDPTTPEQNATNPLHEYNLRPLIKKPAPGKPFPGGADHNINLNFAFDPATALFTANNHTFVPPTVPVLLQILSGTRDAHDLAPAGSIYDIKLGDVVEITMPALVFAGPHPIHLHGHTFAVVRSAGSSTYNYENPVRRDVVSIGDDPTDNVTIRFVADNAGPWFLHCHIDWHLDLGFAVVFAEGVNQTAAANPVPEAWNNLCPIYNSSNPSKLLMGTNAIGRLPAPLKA", "assay": "spectrophotometric oxidation assay at […] nm", "assay_type": "biochemical", "details": "2 mM ABTS, 0.1 M sodium citrate pH 3.0, room temperature", "data": [{"smiles": "CCn1c(=NN=c2sc3cc(S(=O)(=O)O)ccc3n2CC)sc2cc(S(=O)(=O)O)ccc21", "note": "[ABTS, 2,2′-azino-bis(3-ethylbenzothiazoline-6-sulphonic acid)]", "values": [{"measurement": "spectrophotometric oxidation assay at 420 nm", "value": "The laccase activity was assayed at room temperature, monitoring the oxidation of ABTS"}]}]}
